The text below walks through data of patent publication US11964978B2, “Modulators of STING (stimulator of interferon genes)” (PFIZER INC., priority 2021, dated 2024).

SMILES strings stand for the structures. Bounds are passed on as bounds.

The subject of assay [1] is phosphorylation of IRF3 in THP-1 cells (STING activation). Put plainly: Phosphorylation of IRF3: THP-1 cell ELISA. It is filed as cell-based. The note with it: Homo sapiens, 3 hours incubation, read-out: THP-1 CELL P-IRF3 EC50. The protocol:
Phosphorylation of IRF3: THP-1 cell ELISA
STING activation results in recruitment of TBK1 and phosphorylation of IRF3 transcription factor before induction of type I interferons. THP-1 cells (InvivoGen) were grown in RPMI media plus 2 mM L-glutamine, 10% fetal bovine serum, and 0.5% Pen-Strep. 10^4 cells were seeded in 96-well plates and incubated overnight […]. Compounds serial diluted compounds in media (final 0.5% DMSO) were added to the cells and incubated for an additional 3 hours. After incubation, the plates were centrifuged at 2000 rpm for 5 min. The cells were then lysed in 100 μl RIPA buffer and vortexed for 30 minutes at room temperature. 25 μl of lysate was then transferred to clear polystyrene High Bind plates that had been previously coated with mouse anti-human IRF-3 capture antibody (BD Pharmigen), and allowed to incubate at 4° C. for 16 hours. The plates were then washed and incubated with rabbit anti-phospho-IRF3 detection antibody (Cell Signaling Technologies) for 1.5 hours at room temperature. Finally, an HRP-linked secondary antibody (Cell Signaling Technologies) was added for 30 min before the Glo Substrate Reagent (R&D Systems) was used generate the luminescent signal. The signal was measured using a Perkin-Elmer Envision microplate reader. Data were normalized to “% effect” with a positive control STING agonist that was known to maximize the phosphorylated IRF3 signal and the negative control was DMSO.
On the technique in general: An ELISA detects its analyte on a solid surface through an enzyme-linked reagent.

In assay [2] the test system is THP-1 Lucia ISG cells (IRF-inducible Lucia luciferase reporter). Put plainly: Interferon-β induction: THP-1 ISG reporter cell line. It is filed as cell-based. The note with it: THP1-Lucia ISG, 24 hours incubation, read-out: THP-1 Lucia ISG Cells IFN-β EC50. The protocol:
Interferon-β Induction: THP-1 ISG Reporter Cell Line
THP-1 Lucia™ ISG cells (InvivoGen) express the secreted luciferase “Lucia” reporter gene under the control of an IRF-inducible composite promotor comprised of five interferon response elements. THP-1 Lucia™ ISG cells were grown in RPMI media plus 2 mM L-glutamine, 10% fetal bovine serum, and 0.5% Pen-Strep. Hygromycin B and Zeocin were present to maintain stable transfection. 10^4 cells were seeded in 96-well plates and incubated overnight 37° C., 5% CO2. 50 μL of serial diluted compounds in media (final 0.5% DMSO) was and incubated for an additional 24 hours. After incubation, the plates were centrifuged at 2000 rpm for 10 min. 50 μl of cell culture supernatant of each well was transferred to a white, opaque 96-well plate. One pouch of QUANTI-Luc™ (InvivoGen) powder was prepared in 25 mL of endotoxin-free water and 100 μL of prepared warm QUANTI-Luc solution were added to each well containing the supernatant. The luminescence signal was measured using a Perkin-Elmer Envision microplate reader. Data were normalized to “% effect” with a positive control STING agonist that was known to maximize the luciferase signal and the negative control DMSO.

The target of a further assay is R232-STING (Homo sapiens (Human), UniProt Q86WV6, H232R). The note with it: read-out: R232-STING SPA-IC50 Ki; STING residues 155-341, 100 nM 3H-cGAMP; KI from IC50 with Cheng-Prusoff equation.
Chain of R232-STING (Q86WV6 155-341 H232R): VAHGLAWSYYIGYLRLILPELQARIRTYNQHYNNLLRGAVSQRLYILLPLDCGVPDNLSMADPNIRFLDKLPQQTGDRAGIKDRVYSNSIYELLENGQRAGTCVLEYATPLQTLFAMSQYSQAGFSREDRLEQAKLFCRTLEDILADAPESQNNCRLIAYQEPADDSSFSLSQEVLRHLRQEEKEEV

A word on the EC50: it is the midpoint of the concentration-response curve. Broadly, the Ki is a measure of affinity in units of concentration, obtained from inhibition or displacement. On to `Cc1cc(-c2cn(C)c(-c3nc(C(N)=O)cc4c3cnn4C)n2)n(C[C@@H]2CCO2)n1` (single isomer, unassigned) [AIM02], for which the EC50 in assay [1] was greater than 10000 nM; in assay [2], 8960 nM. In addition, at R232-STING, the Ki came out at 135 nM.
Consider `Cc1cc(-c2cn(C)c(-c3nc(C(N)=O)cc4c3cnn4C)n2)n(C[C@H]2CCO2)n1` (single isomer, unassigned) [Example AIM01], for which the EC50 in assay [1] and in assay [2] was greater than 10000 nM throughout. Besides, the Ki on R232-STING came out at 175 nM.
For the compound `CCn1cc(-c2cc(C)nn2CC)nc1-c1nc(C(N)=O)cc2c1cnn2C` [AIA02, 4-[1-ethyl-4-(1-ethyl-3-methyl-1H-pyrazol-5-yl)-1H-imidazol-2-yl]-1-methyl-1H-pyrazolo[4,3-c]pyridine-6-carboxamide], the EC50 in assay [1] turned out to be 800 nM; in assay [2], 770 nM. On R232-STING, the Ki came to 18 nM.
Consider `CCn1nc(C)cc1-c1cn(C(C)C)c(-c2nc(C(N)=O)cc3c2cnn3C)n1` [AIA03, 4-[4-(1-ethyl-3-methyl-1H-pyrazol-5-yl)-1-(propan-2-yl)-1H-imidazol-2-yl]-1-methyl-1H-pyrazolo[4,3-c]pyridine-6-carboxamide], for which the EC50 in assay [1] came to 4890 nM; in assay [2], 4530 nM. The Ki at R232-STING is 71.4 nM.
For `CCn1nc(C)cc1-c1cn(CC(F)F)c(-c2nc(C(N)=O)cc3c2cnn3C)n1` [AIA04, 4-[1-(2,2-difluoroethyl)-4-(1-ethyl-3-methyl-1H-pyrazol-5-yl)-1H-imidazol-2-yl]-1-methyl-1H-pyrazolo[4,3-c]pyridine-6-carboxamide], the results for the EC50 in assay [1] and in assay [2] were 1260 nM and 1310 nM, respectively. Also, the Ki on R232-STING came to 33.8 nM.
For `CCn1nc(C)cc1-c1cn(C)c(-c2nc(C(N)=O)cc3c2ccn3C)n1` [AIC02, 4-[4-(1-ethyl-3-methyl-1H-pyrazol-5-yl)-1-methyl-1H-imidazol-2-yl]-1-methyl-1H-pyrrolo[3,2-c]pyridine-6-carboxamide], in that order: greater than 10000 nM, greater than 10000 nM and 113 nM.
For `CCn1ncc2c(-c3nc(-c4cc(C)nn4CCCOC)cn3C)nc(C(N)=O)cc21` [AIC03, 1-ethyl-4-{4-[1-(3-methoxypropyl)-3-methyl-1H-pyrazol-5-yl]-1-methyl-1H-imidazol-2-yl}-1H-pyrazolo[4,3-c]pyridine-6-carboxamide], in that order: 650 nM, 700 nM and 7.8 nM.
For `CCn1cc(-c2cc(C)nn2CCCO)nc1-c1nc(C(N)=O)cc2c1cnn2C` [AIE02, 4-{1-ethyl-4-[1-(3-hydroxypropyl)-3-methyl-1H-pyrazol-5-yl]-1H-imidazol-2-yl}-1-methyl-1H-pyrazolo[4,3-c]pyridine-6-carboxamide], in that order: 200 nM, 270 nM and 12.7 nM.
Regarding `Cc1cc(-c2cn(C)c(-c3nc(C(N)=O)cc4c3cnn4C)n2)n(CCCCCO)n1` [AIE03, 4-{4-[1-(5-hydroxypentyl)-3-methyl-1H-pyrazol-5-yl]-1-methyl-1H-imidazol-2-yl}-1-methyl-1H-pyrazolo[4,3-c]pyridine-6-carboxamide], the EC50 in assay [1] and in assay [2] was 310 nM in each case. At R232-STING, the Ki came to 10.7 nM.
`Cc1cc(-c2cn(C)c(-c3nc(C(N)=O)cc4c3cnn4C)n2)n(CCCCO)n1` [AIE04, 4-{4-[1-(4-hydroxybutyl)-3-methyl-1H-pyrazol-5-yl]-1-methyl-1H-imidazol-2-yl}-1-methyl-1H-pyrazolo[4,3-c]pyridine-6-carboxamide]: the EC50 stood at 690 nM in assay [1] and 740 nM in assay [2]. The Ki at R232-STING was 13.7 nM.
For `COCCn1nc(C)cc1-c1cn(C)c(-c2nc(C(N)=O)cc3c2cnn3C)n1` [AIF02, 4-{4-[1-(2-methoxyethyl)-3-methyl-1H-pyrazol-5-yl]-1-methyl-1H-imidazol-2-yl}-1-methyl-1H-pyrazolo[4,3-c]pyridine-6-carboxamide], in that order: 2090 nM, 2160 nM and 54.6 nM.
As to `COCCCn1nc(C)cc1-c1cn(C)c(-c2nc(C(N)=O)cc3c2cnn3C)n1` [AIF03, 4-{4-[1-(3-methoxypropyl)-3-methyl-1H-pyrazol-5-yl]-1-methyl-1H-imidazol-2-yl}-1-methyl-1H-pyrazolo[4,3-c]pyridine-6-carboxamide], the EC50 came out at 140 nM in assay [1] and 160 nM in assay [2]. In addition, the Ki on R232-STING is 5.7 nM.
In the case of `Cc1cc(-c2cn(C)c(-c3nc(C(N)=O)cc4c3cnn4C)n2)n(CC2CC2)n1` [AIF04, 4-{4-[1-(cyclopropylmethyl)-3-methyl-1H-pyrazol-5-yl]-1-methyl-1H-imidazol-2-yl}-1-methyl-1H-pyrazolo[4,3-c]pyridine-6-carboxamide], the concentration giving a half-maximal response (EC50) in assay [1] turned out to be 2120 nM; in assay [2], 2380 nM. The inhibitory constant (Ki) at R232-STING turned out to be 23.6 nM.
In the case of `Cc1cc(-c2cn(C)c(-c3nc(C(N)=O)cc4c3cnn4C)n2)n(CCC(F)(F)F)n1` [AIF05, 1-methyl-4-{1-methyl-4-[3-methyl-1-(3,3,3-trifluoropropyl)-1H-pyrazol-5-yl]-1H-imidazol-2-yl}-1H-pyrazolo[4,3-c]pyridine-6-carboxamide], the Ki on R232-STING is greater than 990 nM.
As to `Cc1cc(-c2cn(C)c(-c3nc(C(N)=O)cc4c3cnn4C)n2)n(CC(F)(F)F)n1` [AIF06, 1-methyl-4-{1-methyl-4-[3-methyl-1-(2,2,2-trifluoroethyl)-1H-pyrazol-5-yl]-1H-imidazol-2-yl}-1H-pyrazolo[4,3-c]pyridine-6-carboxamide], the EC50 was 2610 nM in assay [1] and 2570 nM in assay [2]. For the same compound, on R232-STING, the Ki is 18.2 nM.
For `CCn1nc(C)c(O)c1-c1cn(C)c(-c2nc(C(N)=O)cc3c2cnn3C)n1` [AIF07, 4-[4-(1-ethyl-4-hydroxy-3-methyl-1H-pyrazol-5-yl)-1-methyl-1H-imidazol-2-yl]-1-methyl-1H-pyrazolo[4,3-c]pyridine-6-carboxamide], the results for the EC50 in assay [1] and in assay [2] were 310 nM and 200 nM, respectively. Also, the Ki at R232-STING stood at 2 nM.
Turning to `CCn1nc(C)c(Cl)c1-c1cn(C)c(-c2nc(C(N)=O)cc3c2cnn3C)n1` [AIF08, 4-[4-(4-chloro-1-ethyl-3-methyl-1H-pyrazol-5-yl)-1-methyl-1H-imidazol-2-yl]-1-methyl-1H-pyrazolo[4,3-c]pyridine-6-carboxamide], the Ki on R232-STING is greater than 990 nM.
`CCn1nc(C(F)(F)F)cc1-c1cn(C)c(-c2nc(C(N)=O)cc3c2cnn3C)n1` [AIF09, 4-{4-[1-ethyl-3-(trifluoromethyl)-1H-pyrazol-5-yl]-1-methyl-1H-imidazol-2-yl}-1-methyl-1H-pyrazolo[4,3-c]pyridine-6-carboxamide]: the inhibition constant Ki on R232-STING was greater than 990 nM.
Turning to `COCCCn1nc(C)c(O)c1-c1cn(C)c(-c2nc(C(N)=O)cc3c2cnn3C)n1` [AIF10, 4-{4-[4-hydroxy-1-(3-methoxypropyl)-3-methyl-1H-pyrazol-5-yl]-1-methyl-1H-imidazol-2-yl}-1-methyl-1H-pyrazolo[4,3-c]pyridine-6-carboxamide], the EC50 in assay [1] was 70 nM; in assay [2], 30 nM. Also, the Ki on R232-STING worked out at 1.3 nM.
Regarding `CCc1nn(C)cc1-c1cn(C)c(-c2nc(C(N)=O)cc3c2cnn3C)n1` [AIH01, 4-[4-(3-ethyl-1-methyl-1H-pyrazol-4-yl)-1-methyl-1H-imidazol-2-yl]-1-methyl-1H-pyrazolo[4,3-c]pyridine-6-carboxamide], on R232-STING, the Ki came out at 352 nM.
For the compound `CCn1nc(C)cc1-c1cn(Cc2ccccc2)c(-c2nc(C(N)=O)cc3c2cnn3C)n1` [AIP03], the Ki at R232-STING is greater than 990 nM.
Take `CCn1nc(C)cc1-c1cn(C2CC2)c(-c2nc(C(N)=O)cc3c2cnn3C)n1` [Example AIB01, 4-[1-cyclopropyl-4-(1-ethyl-3-methyl-1H-pyrazol-5-yl)-1H-imidazol-2-yl]-1-methyl-1H-pyrazolo[4,3-c]pyridine-6-carboxamide]: the Ki at R232-STING came to 257 nM.
